Test results taken from patent US12414952B2 (Merck Sharp & Dohme LLC, priority 2018, dated 2025).

Biological target: human A2a adenosine receptor (Homo sapiens (Human), UniProt P29274)
Assay: A2a binding affinity using radioligand binding, Method (A)
Conditions: Method (A): [3H]SCH58261 filtration binding
Excerpt: The A2a receptor affinity binding assay measured the amount of binding of a tritiated ligand with high affinity for the A2a adenosine receptor to membranes made from HEK293 or CHO cells recombinantly expressing the human A2a adenosine receptor, in the presence of varying concentrations of a compound of the invention. The data were generated using either filtration binding or a homogenous scintillation proximity assay (SPA).
Method (A): Measurement of A2a Binding Affinity Using Radioligand Binding
148 μL (5 μg/mL) membranes (Perkin Elmer, Cat. No. RBHA2aM400UA) and 2 μL compounds of the invention to be tested (test compound) were transferred to individual wells of a 96-well polypropylene assay plate and incubated for 15 to 30 min at room temperature. [^3H] SCH58261 ((7-(2-phenylethyl)-5-amino-2-(2-furyl)-pyrazolo-[4,3-e]-1,2,4-triazolo[1,5-c]pyrimidine)) was diluted in assay buffer (50 mM Tris pH 7.4, 10 mM MgCl2, 0.005% Tween20) to a concentration of 4 nM and 50 μL transferred to each well of the assay plate. […] The assay plate was incubated at room temperature for 60 min with agitation. […] Filtering was achieved by aspirating the contents of the assay plate for 5 sec, then washing and aspirating the contents three times with ice-cooled wash buffer (50 mM Tris-HCl pH 7.4, 150 mM NaCl) and allowing the vacuum manifold to dry the plate for […]. The filter plate was incubated for at least 1 h at 55° C. and allowed to dry. The bottom of the filter plate was sealed with backing tape. […] The plate was incubated for at least 20 min, and then the amount of radioactivity remaining in each well was determined using a TopCount® (Perkin Elmer) scintillation counter. After normalization to total and non-specific binding, the percent effect at each compound concentration was calculated. The plot of percent effect versus the log of compound concentration was analyzed electronically using a 4-parameter logistic fit based on the Levenberg-Marquardt algorithm to generate IC50 values.

Sequence of human A2a adenosine receptor (P29274 whole entry): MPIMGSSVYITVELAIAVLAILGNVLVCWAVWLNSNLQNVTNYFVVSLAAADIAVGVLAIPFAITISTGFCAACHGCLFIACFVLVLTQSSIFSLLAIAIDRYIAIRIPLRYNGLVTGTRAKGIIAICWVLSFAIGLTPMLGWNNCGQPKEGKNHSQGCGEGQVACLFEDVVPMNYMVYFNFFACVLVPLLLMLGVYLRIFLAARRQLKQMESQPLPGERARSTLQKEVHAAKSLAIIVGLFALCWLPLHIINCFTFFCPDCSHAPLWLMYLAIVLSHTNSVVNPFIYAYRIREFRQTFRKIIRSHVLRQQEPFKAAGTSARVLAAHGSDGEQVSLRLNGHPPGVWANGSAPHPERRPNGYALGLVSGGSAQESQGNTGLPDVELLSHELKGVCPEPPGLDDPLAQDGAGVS

Question: How did the IC50 turn out when `Nc1nc(-c2ncco2)cn2nc(Cc3ccccc3)nc12` [Example 1.2, 2-benzyl-6-(oxazol-2-yl)-[1,2,4]triazolo[1,5-a]pyrazin-8-amine] was run?
Answer: 3.1 nM

Question: `Cc1c(-c2nccs2)nc(N)c2nc(Cc3ccccc3)nn12` [Example 1.3] was tested. Which IC50 did it give?
Answer: 1.3 nM

Question: Which IC50 does the source give for `Cc1c(-c2ncccn2)nc(N)c2nc(Cc3ccccc3)nn12` [Example 1.4] here?
Answer: 3.6 nM

Question: With `Cc1nc2c(N)nc(-c3ncco3)cn2n1` [Example 1.5] as the compound, how does the IC50 read?
Answer: 909 nM

Question: `Cc1nc2c(o1)CN(CCc1nc3c(C)c(-c4ncco4)nc(N)n3n1)C2` [Example 1.7] was tested. Which IC50 did it give?
Answer: 7.4 nM

Question: With `Cc1nc2cc(-c3ncco3)nc(N)n2n1` [Example 1.9] as the compound, how does the IC50 read?
Answer: 534 nM

Question: `Nc1nc(-c2ccc(F)cc2)cn2nc(Cc3ccccc3)nc12` [Example 2.3, 2-benzyl-6-(4-fluorophenyl)-[1,2,4]triazolo[1,5-a]pyrazin-8-amine] was tested. Which IC50 did it give?
Answer: 2.5 nM

Question: How did the IC50 turn out when `Nc1nc(-c2ccccc2)cn2nc(Cc3ccccc3)nc12` [Example 2.4] was run?
Answer: 1.6 nM

Question: How did the IC50 turn out when `Cc1nc2c(N)nc(-c3ccccc3)cn2n1` [Example 2.5] was run?
Answer: 112 nM

Question: `Cc1nc2c(N)nc(-c3ccc(F)cc3)cn2n1` [Example 2.6] was tested. Which IC50 did it give?
Answer: 523 nM

Question: How did the IC50 turn out when `Nc1nc(-c2cc(F)ccc2F)cn2nc(Cc3ccccc3)nc12` [Example 2.7] was run?
Answer: 2.2 nM

Question: `Cc1c(-c2ccc(F)cc2)nc(N)n2nc(CCN3CCn4c(cnc4C(C)C)C3)nc12` [Example 2.17] was tested. Which IC50 did it give?
Answer: 124 nM

Question: For `Cc1nc2c(o1)CN(CCc1nc3c(C)c(-c4cnco4)nc(N)n3n1)C2` [Example 2.25], which IC50 is on record?
Answer: 26.7 nM

Question: How did the IC50 turn out when `Cc1c(-c2cccc(F)c2)nc(N)c2nc(Cc3ccccc3)nn12` [Example 3.3, 2-benzyl-6-(3-fluorophenyl)-5-methyl-[1,2,4]triazolo[1,5-a]pyrazin-8-amine] was run?
Answer: 1.1 nM

Question: `Cc1c(-c2cc(F)ccc2F)nc(N)c2nc(Cc3ccccc3)nn12` [Example 3.4] was tested. Which IC50 did it give?
Answer: 1.1 nM

Question: For `Cc1c(-c2ccccc2)nc(N)c2nc(Cc3ccccc3)nn12` [Example 3.5], which IC50 is on record?
Answer: 2.2 nM

Question: `Cc1c(-c2ccccc2F)nc(N)c2nc(Cc3ccccc3)nn12` [Example 3.6] was tested. Which IC50 did it give?
Answer: 6.4 nM

Question: Which IC50 does the source give for `COc1ccc(-c2nc(N)c3nc(Cc4ccccc4)nn3c2C)cc1Cl` [Example 3.7] here?
Answer: 11 nM

Question: For `COc1ccc(-c2nc(N)c3nc(Cc4ccccc4)nn3c2C)cc1F` [Example 3.8], which IC50 is on record?
Answer: 20.6 nM

Question: How did the IC50 turn out when `Cc1c(-c2cncc(F)c2)nc(N)c2nc(Cc3ccccc3)nn12` [Example 3.9] was run?
Answer: 24.5 nM

Question: With `Cc1c(-c2ccc(F)c(F)c2)nc(N)c2nc(Cc3ccccc3)nn12` [Example 3.10] as the compound, how does the IC50 read?
Answer: 27.9 nM

Question: `COc1cccc(-c2nc(N)c3nc(Cc4ccccc4)nn3c2C)c1F` [Example 3.11] was tested. Which IC50 did it give?
Answer: 28.5 nM

Question: How did the IC50 turn out when `Cc1c(-c2ccc(Cl)c(Cl)c2)nc(N)c2nc(Cc3ccccc3)nn12` [Example 3.12] was run?
Answer: 38 nM

Question: For `COc1ncc(-c2nc(N)c3nc(Cc4ccccc4)nn3c2C)cc1F` [Example 3.13], which IC50 is on record?
Answer: 40 nM

Question: Which IC50 does the source give for `COc1ccc(-c2nc(N)c3nc(Cc4ccccc4)nn3c2C)c(F)c1` [Example 3.14] here?
Answer: 40.6 nM

Question: For `Cc1cc(-c2nc(N)c3nc(Cc4ccccc4)nn3c2C)ccn1` [Example 3.15], which IC50 is on record?
Answer: 54.8 nM

Question: For `Cc1c(-c2ccc(Cl)c(F)c2)nc(N)c2nc(Cc3ccccc3)nn12` [Example 3.16], which IC50 is on record?
Answer: 73.9 nM

Question: For `Cc1c(-c2ccc(F)cc2F)nc(N)c2nc(Cc3ccccc3)nn12` [Example 3.17], which IC50 is on record?
Answer: 82.2 nM

Question: Which IC50 does the source give for `Cc1c(-c2ccc(Cl)cc2)nc(N)c2nc(Cc3ccccc3)nn12` [Example 3.18] here?
Answer: 84.4 nM

Question: How did the IC50 turn out when `Cc1c(-c2ccc(OC(F)F)cc2)nc(N)c2nc(Cc3ccccc3)nn12` [Example 3.19] was run?
Answer: 121 nM

Question: How did the IC50 turn out when `Cc1c(-c2cccc(C(F)(F)F)n2)nc(N)c2nc(Cc3ccccc3)nn12` [Example 3.20] was run?
Answer: 157 nM

Question: How did the IC50 turn out when `Cc1c(-c2ccc(Cl)cc2F)nc(N)c2nc(Cc3ccccc3)nn12` [Example 3.21] was run?
Answer: 168 nM

Question: For `Cc1c(-c2cnn(C(F)(F)F)c2)nc(N)c2nc(Cc3ccccc3)nn12` [Example 3.44], which IC50 is on record?
Answer: 490 nM

Question: With `Cc1c(-c2cc(C(F)(F)F)nn2C)nc(N)c2nc(Cc3ccccc3)nn12` [Example 3.45] as the compound, how does the IC50 read?
Answer: 17.8 nM

Question: How did the IC50 turn out when `Cc1c(-c2ncco2)nc(N)c2nc(Cc3ccccc3C(F)(F)F)nn12` [Example 7.3, 5-methyl-6-(oxazol-2-yl)-2-(2-(trifluoromethyl)benzyl)-[1,2,4]triazolo[1,5-a]pyrazin-8-amine] was run?
Answer: 0.5 nM

Question: How did the IC50 turn out when `Cc1c(-c2cc(F)ccc2F)nc(N)c2nc(Cc3ccc(C(F)(F)F)cc3)nn12` [Example 7.4, 6-(2,5-difluorophenyl)-5-methyl-2-(4-(trifluoromethyl)benzyl)-[1,2,4]triazolo[1,5-a]pyrazin-8-amine] was run?
Answer: 15.3 nM

Question: Which IC50 does the source give for `Nc1nc(-c2ccccc2)cc2nc(CCO)nn12` [Example 14.3, 2-(5-amino-7-phenyl-[1,2,4]triazolo[1,5-c]pyrimidin-2-yl)ethan-1-ol] here?
Answer: 493 nM

Question: How did the IC50 turn out when `Cc1c(-c2ncco2)nc(N)n2nc(CCN3CCc4c(ncn4C4CCCC4)C3)nc12` [Example 17.18, 2-(2-(1-cyclopentyl-1,4,6,7-tetrahydro-5H-imidazo[4,5-c]pyridin-5-yl)ethyl)-8-methyl-7-(oxazol-2-yl)-[1,2,4]triazolo[1,5-c]pyrimidin-5-amine] was run?
Answer: 0.6 nM

Question: With `Cc1c(-c2ncco2)nc(N)n2nc(CCN3CCc4ncn(C5CCCC5)c4C3)nc12` [Example 17.19, 2-(2-(3-cyclopentyl-3,4,6,7-tetrahydro-5H-imidazo[4,5-c]pyridin-5-yl)ethyl)-8-methyl-7-(oxazol-2-yl)-[1,2,4]triazolo[1,5-c]pyrimidin-5-amine] as the compound, how does the IC50 read?
Answer: 3 nM

Question: How did the IC50 turn out when `Nc1nc(-c2ncco2)cc2nc(CCN3CC(F)(F)C3)nn12` [Example 17.20, 2-(2-(3,3-difluoroazetidin-1-yl)ethyl)-7-(oxazol-2-yl)-[1,2,4]triazolo[1,5-c]pyrimidin-5-amine] was run?
Answer: 90.9 nM

Question: `Nc1nc(-c2ncco2)cc2nc(CCN3CCc4[nH]ncc4C3)nn12` [Example 17.21, 7-(oxazol-2-yl)-2-(2-(1,4,6,7-tetrahydro-5H-pyrazolo[4,3-c]pyridin-5-yl)ethyl)-[1,2,4]triazolo[1,5-c]pyrimidin-5-amine] was tested. Which IC50 did it give?
Answer: 450 nM

Question: `Cn1nc(C(F)(F)F)c2c1CCN(CCc1nc3cc(-c4ncco4)nc(N)n3n1)C2` [Example 17.22, 2-(2-(1-methyl-3-(trifluoromethyl)-1,4,6,7-tetrahydro-5H-pyrazolo[4,3-c]pyridin-5-yl)ethyl)-7-(oxazol-2-yl)-[1,2,4]triazolo[1,5-c]pyrimidin-5-amine] was tested. Which IC50 did it give?
Answer: 78.9 nM

Question: With `Nc1nc(-c2ncco2)cc2nc(CCN3CCN(CC4CC4)C(=O)C3)nn12` [Example 17.23, 4-(2-(5-amino-7-(oxazol-2-yl)-[1,2,4]triazolo[1,5-c]pyrimidin-2-yl)ethyl)-1-(cyclopropylmethyl)piperazin-2-one] as the compound, how does the IC50 read?
Answer: 122 nM

Question: `Cc1cc2n(n1)CCN(CCc1nc3cc(-c4ncco4)nc(N)n3n1)C2` [Example 17.24, 2-(2-(2-methyl-6,7-dihydropyrazolo[1,5-a]pyrazin-5(4H)-yl)ethyl)-7-(oxazol-2-yl)-[1,2,4]triazolo[1,5-c]pyrimidin-5-amine] was tested. Which IC50 did it give?
Answer: 319 nM

Question: With `Nc1nc(-c2ncco2)cc2nc(CCN3CCc4nccnc4C3)nn12` [Example 17.25, 2-(2-(7,8-dihydropyrido[3,4-b]pyrazin-6(5H)-yl)ethyl)-7-(oxazol-2-yl)-[1,2,4]triazolo[1,5-c]pyrimidin-5-amine] as the compound, how does the IC50 read?
Answer: 402 nM

Question: For `CC(C)c1ncc2n1CCN(CCc1nc3c(N)nc(-c4ncco4)cn3n1)C2` [Example 17.26, 2-(2-(3-isopropyl-5,6-dihydroimidazo[1,5-a]pyrazin-7(8H)-yl)ethyl)-6-(oxazol-2-yl)-[1,2,4]triazolo[1,5-a]pyrazin-8-amine], which IC50 is on record?
Answer: 629 nM

Question: How did the IC50 turn out when `Nc1nc(-c2ccccc2)cc2nc(CCN3CCn4c(cnc4C4CCC4)C3)nn12` [Example 17.27, 2-(2-(3-cyclobutyl-5,6-dihydroimidazo[1,5-a]pyrazin-7(8H)-yl)ethyl)-7-phenyl-[1,2,4]triazolo[1,5-c]pyrimidin-5-amine] was run?
Answer: 39.9 nM

Question: `Cc1c(-c2ncco2)nc(N)n2nc(Cc3ccccc3)nc12` [Example 19.3, 2-benzyl-8-methyl-7-(oxazol-2-yl)-[1,2,4]triazolo[1,5-c]pyrimidin-5-amine] was tested. Which IC50 did it give?
Answer: 0.5 nM

Question: `Cc1c(-c2ncco2)nc(N)c2nc(Cc3ccccc3)nn12` [Example 20.2, 2-benzyl-5-methyl-6-(oxazol-2-yl)-[1,2,4]triazolo[1,5-a]pyrazin-8-amine] was tested. Which IC50 did it give?
Answer: 0.5 nM

Question: How did the IC50 turn out when `Cc1c(-c2ccc(F)cc2)nc(N)c2nc(Cc3ccccc3)nn12` [Example 20.3, 2-benzyl-6-(4-fluorophenyl)-5-methyl-[1,2,4]triazolo[1,5-a]pyrazin-8-amine] was run?
Answer: 40 nM

Question: Which IC50 does the source give for `Nc1nc(-c2ncco2)c(C2CC2)n2nc(Cc3ccccc3)nc12` [Example 20.4, 2-benzyl-5-cyclopropyl-6-(oxazol-2-yl)-[1,2,4]triazolo[1,5-a]pyrazin-8-amine] here?
Answer: 3.2 nM

Question: Which IC50 does the source give for `Cc1c(-c2ncco2)nc(N)n2nc(Cn3cc(CCC(C)(C)O)cn3)nc12` [Example 21.3, 4-(1-((5-amino-8-methyl-7-(oxazol-2-yl)-[1,2,4]triazolo[1,5-c]pyrimidin-2-yl)methyl)-1H-pyrazol-4-yl)-2-methylbutan-2-ol] here?
Answer: 21.5 nM
